Legend:
[1] = tested on: lung cancer cells, A549, H1299, H1975, CL1-5, and PC-9; assay: methylene blue dye assay, growth of lung cancer cells; format: cell-based; settings: Homo sapiens; range over A549, H1299, H1975, CL1-5, PC-9; treated 1-5 μM for 1, 2 or 3 days; read-out: IC50 values (50% inhibition of cell viability)
Source text: The effects of Compound A and Compound B on the growth of tumor cells were investigated in A549 (adenocarcinomic human alveolar epithelial cell), H1299 (human non-small cell lung carcinoma cell), H1975 (human non-small cell lung carcinoma cell), CL1-5 (human lung adenocarcinoma cell), and PC-9 (human lung adenocarcinoma cell) cell lines. A methylene blue dye assay (G. J. Finlay et al., Anal Biochem. 1984 June; 139(2):272-7) (11) was used to evaluate the inhibitory effect of Compound A and Compound B. Briefly, each of the cell lines with a logarithmic growth phase was cultured at a density of 2×10^4 to 4×10^4 cells per well in a 24-well plate, and treated with 1-5 μM of Compound A or Compound B for 1, 2, or 3 days. At the end of the incubation period, cells were fixed and stained with 0.5% methylene blue containing 50% ethanol for 30 minutes and then were washed and dried. The resulting colored residues were dissolved in 1% N-lauroyl-sarcosine, and optical density was read at 595 nm using a microplate reader. The IC50 value resulting from 50% inhibition of cell viability was calculated graphically as a comparison with vehicle control group. Each point represents the average of at least 3 independent experiments run in quadruple.

[2] = tested on: TC-1 tumor (mouse lung epithelial cancer cells); assay: mouse model bearing TC-1 tumor; format: in vivo, C57BL/6 mice; settings: oral gavage 120 mg/Kg/day, p<0.05
Method: (§1) The anti-tumor activity of Compound A was evaluated in the human NSCLC xenograft model. Nude mice and C57BL/6 mice were subcutaneously inoculated with H1299 (1×10^6) and mouse lung epithelial cancer cells, TC-1 (2×10^5), respectively. Tumor volumes were measured beginning on day 4 or 5 after tumor inoculation according to the relationship (L×D^2)/2, where L is the long dimension and D is the short dimension. The xenograft tumor-bearing mice were administered by oral gavage with compound A (dissolved in 10% dimethyl sulfoxide (DMSO)/cottonseed oil) at 120 mg/Kg/day for consecutive 5 days of the week. Animal body weight and tumor size were measured twice weekly. ANOVA followed by a multiple comparison Scheff test was conducted to determine significant differences among the treatment group at p<0.05.

H1299 tumor = assay: human NSCLC xenograft model bearing H1299 tumor; format: in vivo, Nude mice; settings: oral gavage 120 mg/Kg/day; for tumor regression: 5 consecutive days of the week
Method: as §1

Compound | IC50 [1] [nM] | inhibitory activity on tumor [2] | inhibitory activity on tumor (H1299 tumor; H1299 tumor, p<0.05) | tumor regression (H1299 tumor; day 35) | tumor regression (H1299 tumor; day 50)
COc1ccc(/C=C/C(=O)C(CC2CCC2)C(=O)/C=C/c2ccc(OC)c(OC)c2)cc1OC [Compound B, 4-(cyclobutylmethyl)-1,7-bis(3,4-dimethoxyphenyl)hepta-1,6-diene-3,5-dione] | 2000 to 3300 |  |  |  | 
COc1ccc(/C=C/C(=O)C(F)(CC2CCC2)C(=O)/C=C/c2ccc(OC)c(OC)c2)cc1OC [Compound A, 4-fluoro-4-cyclobutylmethyl-1,7-bis(3,4-dimethoxyphenyl)hepta-1,6-diene-3,5-dione] | 1500 to 3000 | statistically significant inhibitory activity | statistically significant inhibitory activity | around 36% | around 43%

— patent US20240238220A1, “METHODS FOR TREATING CANCERS” (priority 2023, published 2024)
